Test results as given in ChEMBL document CHEMBL5154879, “Induction of Genes Implicated in Stress Response and Autophagy by a Novel Quinolin-8-yl-nicotinamide QN523 in Pancreatic Cancer” (J Med Chem, 2022).
Activity calls are given as the source filed them. The rule behind the calls is not given here.

How the values were obtained:
[1] = Downregulation of LMNB2 gene expression in human MIA PaCa-2 cells assessed as fold change in LMNB2 expression at 1 uM incubated for 24 hrs by Bru-seq analysis relative to control; assay type: functional
Hep 3B2 = experiment: Antiproliferative activity against human Hep3B cells assessed as inhibition of cell growth incubated for 72 hrs by MTT assay; assay type: functional, cell-based
SNU-449 = experiment: Antiproliferative activity against human SNU-449 cells assessed as inhibition of cell growth incubated for 72 hrs by MTT assay; assay type: functional, cell-based; conditions: SNU-449, 72 h
SNU-475 = experiment: Antiproliferative activity against human SNU-475 cells assessed as inhibition of cell growth incubated for 72 hrs by MTT assay; assay type: functional, cell-based; conditions: SNU-475, 72 h
MIA PaCa-2 [2] = experiment: Inhibition of colony formation in human MIA PaCa-2 cells at 0.1 to 1 uM incubated for 10 to 14 days by crystal violet staining based assay; assay type: functional, cell-based; conditions: dose 0.1-1 µM, time 10-14 day
MIA PaCa-2 [3] = experiment: Induction of cell cycle arrest in human MIA PaCa-2 cells assessed as accumulation of cells at S phase at 0.1 uM incubated for 48 hrs by RNase/propidium iodide staining based flow cytometry analysis (Rvb =26.9 %); assay type: functional
MIA PaCa-2 [4] = experiment: Induction of cell cycle arrest in human MIA PaCa-2 cells assessed as accumulation of cells in G0/G1 phase at 0.1 uM incubated for 24 hrs by RNase/propidium iodide staining based flow cytometry analysis (reference value: 64.3%); assay type: functional
MIA PaCa-2 [5] = experiment: Induction of cell cycle arrest in human MIA PaCa-2 cells assessed as accumulation of cells in G0/G1 phase at 0.1 uM incubated for 48 hrs by RNase/propidium iodide staining based flow cytometry analysis (reference value: 70.4%); assay type: functional
MIA PaCa-2 [6] = experiment: Induction of cell cycle arrest in human MIA PaCa-2 cells assessed as accumulation of cells in G0/G1 phase at 0.5 uM incubated for 48 hrs by RNase/propidium iodide staining based flow cytometry analysis (reference value: 70.4%); assay type: functional
MIA PaCa-2 [7] = experiment: Induction of apoptosis in human MIA PaCa-2 cells assessed as viable cells at 0.1 uM incubated for 24 hrs by Annexin V-FITC/PI staining based flow cytometry analysis (reference value: 90.2%); assay type: functional; conditions: read-out: Activity
MIA PaCa-2 [8] = experiment: Induction of apoptosis in human MIA PaCa-2 cells assessed as necrotic cells at 0.1 uM incubated for 24 hrs by Annexin V-FITC/PI staining based flow cytometry analysis (reference value: 2.7%); assay type: functional
MIA PaCa-2 [9] = experiment: Induction of apoptosis in human MIA PaCa-2 cells assessed as early apoptotic cells at 0.5 uM incubated for 24 hrs by Annexin V-FITC/PI staining based flow cytometry analysis (reference value: 5.1%); assay type: functional
MIA PaCa-2 [10] = experiment: Induction of apoptosis in human MIA PaCa-2 cells assessed as late apoptotic cells at 0.5 uM incubated for 24 hrs by Annexin V-FITC/PI staining based flow cytometry analysis (reference value: 2.04%); assay type: functional
MIA PaCa-2 [11] = experiment: Induction of apoptosis in human MIA PaCa-2 cells assessed as early apoptotic cells at 0.1 uM incubated for 48 hrs by Annexin V-FITC/PI staining based flow cytometry analysis (reference value: 1.8%); assay type: functional
MIA PaCa-2 [12] = experiment: Induction of apoptosis in human MIA PaCa-2 cells assessed as necrotic cells at 0.1 uM incubated for 48 hrs by Annexin V-FITC/PI staining based flow cytometry analysis (reference value: 1.07%); assay type: functional
MIA PaCa-2 [13] = experiment: Induction of apoptosis in human MIA PaCa-2 cells assessed as viable cells at 0.5 uM incubated for 48 hrs by Annexin V-FITC/PI staining based flow cytometry analysis (reference value: 96.3%); assay type: functional; conditions: read-out: Activity
MIA PaCa-2 [14] = experiment: Antitumour activity against of human MIA PaCa-2 xenografted in NOD/SCID mouse assessed as reduction in Ki67 expression in tumor by immunohistochemical assay; assay type: functional
[15] = Upregulation of […] gene expression in human MIA PaCa-2 cells assessed as fold change in […] expression at 1 uM incubated for 24 hrs by Bru-seq analysis relative to control; assay type: functional
[16] = Upregulation of SAT1 gene expression in human MIA PaCa-2 cells assessed as fold change in SAT1 expression at 1 uM incubated for 24 hrs by Bru-seq analysis relative to control; assay type: functional
[17] = Upregulation of SESN2 gene expression in human MIA PaCa-2 cells assessed as fold change in SESN2 expression at 1 uM incubated for 24 hrs by Bru-seq analysis relative to control; assay type: functional
[18] = Upregulation of TXNIP gene expression in human MIA PaCa-2 cells assessed as fold change in TXNIP expression at 1 uM incubated for 24 hrs by Bru-seq analysis relative to control; assay type: functional
[19] = Upregulation of ARG2 gene expression in human MIA PaCa-2 cells assessed as fold change in ARG2 expression at 1 uM incubated for 24 hrs by Bru-seq analysis relative to control; assay type: functional
[20] = Downregulation of TNFAIP8LI gene expression in human MIA PaCa-2 cells assessed as fold change in TNFAIP8LI expression at 1 uM incubated for 24 hrs by Bru-seq analysis relative to control; assay type: functional
[21] = Downregulation of FASN gene expression in human MIA PaCa-2 cells assessed as fold change in FASN expression at 1 uM incubated for 24 hrs by Bru-seq analysis relative to control; assay type: functional
[22] = Downregulation of INCENP gene expression in human MIA PaCa-2 cells assessed as fold change in INCENP expression at 1 uM incubated for 24 hrs by Bru-seq analysis relative to control; assay type: functional
[23] = Downregulation of CXXC5 gene expression in human MIA PaCa-2 cells assessed as fold change in CXXC5 expression at 1 uM incubated for 24 hrs by Bru-seq analysis relative to control; assay type: functional
[24] = Downregulation of TACC3 gene expression in human MIA PaCa-2 cells assessed as fold change in TACC3 expression at 1 uM incubated for 24 hrs by Bru-seq analysis relative to control; assay type: functional
[25] = Downregulation of GTSEI gene expression in human MIA PaCa-2 cells assessed as fold change in GTSEI expression at 1 uM incubated for 24 hrs by Bru-seq analysis relative to control; assay type: functional
[26] = Downregulation of LAMA5 gene expression in human MIA PaCa-2 cells assessed as fold change in LAMA5 expression at 1 uM incubated for 24 hrs by Bru-seq analysis relative to control; assay type: functional
[27] = Downregulation of SEMA6B gene expression in human MIA PaCa-2 cells assessed as fold change in SEMA6B expression at 1 uM incubated for 24 hrs by Bru-seq analysis relative to control; assay type: functional
MIA PaCa-2 [28] = experiment: Downregulation of chromosomal proteins expression in human MIA PaCa-2 cells; assay type: functional, cell-based
MIA PaCa-2 [29] = experiment: Upregulation of ER- related gene expression in human MIA PaCa-2 cells; assay type: functional, cell-based
MIA PaCa-2 [30] = experiment: Induction of autophagy in human MIA PaCa-2 cells assessed as accumulation of GABARAPL1 marker gene expression at upto 2 uM incubated for 72 hrs by Western blot analysis; assay type: functional, cell-based

- IC50 (SNU-449): 400 nM
- IC50 (SNU-475): 2670 nM
SMILES: O=C(Nc1cccc2cccnc12)c1cnccn1
- fold change (FC) [1]: 0.46
- IC50 (Hep 3B2): 210 nM
- inhibition (MIA PaCa-2 [2]): Active
- Activity (MIA PaCa-2 [3]): 29.4%
- Activity (MIA PaCa-2 [4]): 52%
- Activity (MIA PaCa-2 [5]): 62.4%
- Activity (MIA PaCa-2 [6]): 31.2%
- viability at 0.1 µM (MIA PaCa-2 [7]): 84.9%
- Activity (MIA PaCa-2 [8]): 2.2%
- Activity (MIA PaCa-2 [9]): 10.1%
- Activity (MIA PaCa-2 [10]): 2.1%
- Activity (MIA PaCa-2 [11]): 5.5%
- Activity (MIA PaCa-2 [12]): 1.1%
- viability at 0.5 µM (MIA PaCa-2 [13]): 95.3%
- Activity (MIA PaCa-2 [14]): Active
- fold change (FC) [15]: 12.8
- fold change (FC) [16]: 7
- fold change (FC) [17]: 5.4
- fold change (FC) [18]: 6
- fold change (FC) [19]: 12
- fold change (FC) [20]: 0.32
- fold change (FC) [21]: 0.41
- fold change (FC) [22]: 0.46
- fold change (FC) [23]: 0.4
- fold change (FC) [24]: 0.45
- fold change (FC) [25]: 0.46
- fold change (FC) [26]: 0.42
- fold change (FC) [27]: 0.43
- Activity (MIA PaCa-2 [28]): Active
- Activity (MIA PaCa-2 [29]): Active
- Activity (MIA PaCa-2 [30]): Active
